Here are results for two compounds from patent publication US20240376122A1, “SMALL MOLECULE COMPOUNDS” (APERTOR PHARMACEUTICALS, INC., priority 2021, published 2024).

In data set [1] the test system is Saccharomyces cerevisiae BY4742. The data set can be described thus: Anti-yeast activity assay (minimum inhibitory concentration). In kind it is cell-based. Particulars: YPD media, 96-well plates, 30° C. for 16 hours without shaking, lowest concentration with no obvious culture growth, triplicate, read-out: MIC against Saccharomyces cerevisiae BY4742. How it is done: A single colony of Saccharomyces cerevisiae BY4742 was inoculated into 2 mL YPD media in a 5 mL falcon tube to grow overnight at 30° C. The overnight culture was inoculated into 5 mL YPD media in a glass tube at OD600-0.1, and the new culture was grown at 30° C. until OD600 reached 0.5. The culture was then diluted to OD600-0.01 and aliquoted into 96-well plates at 100 μL per well. The compound was dissolved in ethanol at 75 μM. Three-fold serial dilutions were conducted for the Compound 10 times using ethanol, respectively. 4 μL of each concentration compound solution was added and mixed with 384 μL YPD media. 100 μL of the YPD media solutions were mixed with the Saccharomyces cerevisiae cultures in 96-well plates by pipette, respectively. The plates were incubated at 30° C. for 16 hours without shaking. The lowest Compound concentrations in wells that have no obvious culture growth were defined as the minimum inhibitory concentrations (MICs). The assays were conducted in triplicate.

For data set [2] the following is noted: observed in humans; cited from earlier work.

The MIC is the smallest concentration in the dilution series that meets the test's criterion for growth inhibition.

Take `CO[C@@H]1/C(C)=C/C=C/C=C/[C@@H](C)C[C@@H](C)C(=O)[C@H](OC)[C@H](O)/C(C)=C/[C@@H](C)C(=O)C[C@@H]([C@H](C)C[C@@H]2CC[C@@H](O)[C@H](OC)C2)OC(=O)[C@@H]2CCCCN2C(=O)C(=O)[C@]2(O)O[C@@H](CC[C@H]2C)[C@H]1C` (single isomer, unassigned) [Compound 15]: in data set [1], the MIC was below 0.0556 µM.

In the case of `CO[C@H]1C[C@@H]2CC[C@@H](C)[C@@](O)(O2)C(=O)C(=O)N2CCCC[C@H]2C(=O)O[C@H]([C@H](C)C[C@@H]2CC[C@@H](O)[C@H](OC)C2)CC(=O)[C@H](C)/C=C(\C)[C@@H](O)[C@@H](OC)C(=O)[C@H](C)C[C@H](C)/C=C/C=C/C=C/1C` [rapamycin], the terminal half-life in data set [2] is 24 to 48 h.
